Results taken from US20240002463A1, “CHEMOGENETIC RECEPTORS AND METHODS OF MAKING AND USING” (Howard Hughes Medical Institute, priority 2022, published 2024).
Like-named read-outs stand apart in the source and are kept apart here.

Columns and labels:
α7-GlyR = biological target: T1, α7-GlyR (Homo sapiens, UniProt P36544); test: agonist potency/activity at unmodified α7-GlyR chimeric channel; type: cell-based
T1 construct: expressed in transfected cells; host or cells: HEK-293 (transient transfection)

α7-5HT3 [1] = biological target: T2, α7-5HT3 (Homo sapiens, UniProt P36544, M226I/T225I); test: agonist potency/activity at unmodified α7-5HT3 chimeric channel; type: cell-based; details: agonist activity at unmodified α7-5HT3; read-out: EC50α7-5HT3
T2 construct: expressed in transfected cells; host or cells: HEK-293 (transient transfection)

[2] = rat; estimated; cited from earlier work
[3] = test system: hippocampal neurons expressing Gpr40; test: patch clamp electrophysiology of hippocampal neurons expressing Gpr40; type: cell-based, rat; details: 0.2 μM; FIG. 12A
Description: For engineered neuromodulation of neurons by fatty acids, a fatty acid […] (Gpr40) was expressed in hippocampal neurons. Neuron firing was increased in response to a fatty acid, palmitate (20 μM), as well as a synthetic Gpr40 agonist, GW9508 (0.2 μM) (FIG. 12A, 12B). For testing, embryonic rat hippocampal neurons are transfected by electroporation with a plasmid expressing GPR40 and an mCherry fluorescent protein. Then cells are plated on poly-D-lysine coated 13 mm dia #1 glass coverslips in the wells of a 24 well plates at 50,000 cells/well. Each well receives 60 μL of cell suspension plus 60 μL of NbActiv4 medium (BrainBits) and are incubated at 37 C in 5% CO2 for 4 hours for initial cell attachment. NbActiv4 media (1 mL) is then added to each well and cultures kept for the duration of the experiment. Weekly medium changes are done by replacing 0.5 mL medium from each well with fresh NbActiv4. Fluorescent cells are recorded by patch clamp electrophysiology while palmitate or GW9508 are perfused over the cells intermittently in a saline extracellular solution.

α7-5HT3 [4] = biological target: T3, α7-5HT3 (Homo sapiens, UniProt P36544); test: agonist potency/activity at unmodified α7-5HT3 chimeric channel; type: cell-based
T3 construct: expressed in transfected cells; host or cells: HEK-293 (transient transfection)

dopamine release = details: cited from earlier work
[5] = cited from earlier work

T3 sequence (P36544 with tags, fused parts or gaps T225I/M226I): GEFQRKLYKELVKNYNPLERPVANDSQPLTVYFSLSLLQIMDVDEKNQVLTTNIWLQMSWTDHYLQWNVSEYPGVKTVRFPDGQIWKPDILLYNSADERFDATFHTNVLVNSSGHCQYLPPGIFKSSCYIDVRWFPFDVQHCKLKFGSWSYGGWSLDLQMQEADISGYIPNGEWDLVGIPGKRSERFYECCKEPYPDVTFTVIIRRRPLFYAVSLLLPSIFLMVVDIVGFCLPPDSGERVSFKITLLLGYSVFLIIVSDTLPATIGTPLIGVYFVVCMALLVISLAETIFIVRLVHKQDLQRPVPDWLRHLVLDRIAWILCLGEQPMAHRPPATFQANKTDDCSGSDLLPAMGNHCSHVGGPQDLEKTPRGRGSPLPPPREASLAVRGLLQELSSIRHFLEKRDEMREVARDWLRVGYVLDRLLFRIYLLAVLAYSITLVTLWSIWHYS
T1 sequence (P36544 with tags, fused parts or gaps): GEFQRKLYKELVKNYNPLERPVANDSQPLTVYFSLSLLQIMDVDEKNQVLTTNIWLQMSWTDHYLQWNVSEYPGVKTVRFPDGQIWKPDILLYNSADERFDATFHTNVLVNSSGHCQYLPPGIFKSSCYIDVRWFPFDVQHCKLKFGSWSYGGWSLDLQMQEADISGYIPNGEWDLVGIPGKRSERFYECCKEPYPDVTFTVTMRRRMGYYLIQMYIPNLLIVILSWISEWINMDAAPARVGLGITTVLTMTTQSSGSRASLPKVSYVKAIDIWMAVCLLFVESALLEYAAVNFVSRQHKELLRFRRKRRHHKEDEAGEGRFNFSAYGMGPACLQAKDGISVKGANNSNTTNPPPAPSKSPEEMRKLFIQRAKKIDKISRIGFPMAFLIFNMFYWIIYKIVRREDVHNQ
T2 sequence (P36544 with tags, fused parts or gaps T225I/M226I): as the sequence (P36544 with tags, fused parts or gaps T225I/M226I) above

C[N+](C)(C)CCO [Choline]
EC50 (α7-GlyR): 103 µM | EC50 (α7-5HT3 [1]): 37 µM

COC(=O)[C@H]1[C@@H](OC(=O)c2ccccc2)C[C@@H]2CC[C@H]1N2C [Cocaine]
brain concentration maintained by self-administration [2]: 10000 to 20000 nM

O=C(O)CCc1ccc(NCc2cccc(Oc3ccccc3)c2)cc1 [GW9508]
neuron firing [3]: increased

CNC(C)Cc1ccc2c(c1)OCO2 (centres unmarked) [MDMA, 3,4-Methylenedioxy-methamphetamine]
agonist activity at unmodified chimeric receptor α7-5HT3 (α7-5HT3 [4]): do not show agonist activity

CCCC(C(=O)c1ccc2c(c1)OCO2)N1CCCC1 (centres unmarked) [MDPV, methylenedioxypyrvalerone]
EC50 (dopamine release; read-out: EC50 for DA release): 0.1 µM

CN1CCCC1c1cccnc1 (centres unmarked) [Nicotine]
EC50 (dopamine release; nucleus accumbens, read-out: EC50 dopamine release in the nucleus accumbens): 0.48 µM

CC(N)Cc1ccccc1 (centres unmarked) [amphetamine, Amphetamine]
EC50 (dopamine release; read-out: EC50 for DA release): 0.5 µM

CNC(C)C(=O)c1ccc(C)cc1 (centres unmarked) [mephedrone, Mephedrone]
EC50 (dopamine release; read-out: EC50 for DA release): ~0.3 µM

CN[C@@H](C)Cc1ccccc1 [methamphetamine, Methamphetamine]
blood concentration during self-administration ([5]; in females): 900 nM | blood concentration during self-administration ([5]; in males): 700 nM | agonist activity at unmodified chimeric receptor α7-5HT3 (α7-5HT3 [4]): do not show agonist activity

CNC(C)C(=O)c1ccc2c(c1)OCO2 (centres unmarked) [methylone, Methylone]
EC50 (dopamine release; read-out: EC50 for DA release): ~0.4 µM

COC(=O)C(c1ccccc1)C1CCCCN1 (centres unmarked) [methylphenidate, Methylphenidate]
EC50 (dopamine release; striatum, read-out: EC50 for release of DA in the striatum): 10 µM
